According to PubChem BioAssay (NCI):
Values after ≈ are worked out from the molar mass of the structure shown. Values joined by “and” are separate entries in the source; they are usually repeats but may differ in a detail not shown here. Equal values may be shown once.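 96-well plates; 48 h exposure; 5 concentrations. Endpoints by linear interpolation between flanking doses. Not reached: highest tested concentration assigned. Abbreviation: GI50, concentration required for 50% inhibition of growth. TGI marks complete inhibition of growth.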

Experiments:
Experiment in all cases: inhibition of tumour cell growth, NCI panel, 48 h
[1] = system: TK-10 renal
[2] = system: KM12 colon
[3] = system: SK-MEL-5 melanoma
[4] = system: SF-539 CNS
[5] = system: BT-549 breast
[6] = system: CCRF-CEM leukemia
[7] = system: NCI-H23 lung
[8] = system: IGROV1 ovarian
[9] = system: EKVX NSCLC
[10] = system: 786-0 renal

Structure (SMILES)	GI50 [1] [µg/mL]	TGI [1]	GI50 [2]	TGI [2]	GI50 [3]	TGI [3]	GI50 [4] [µg/mL]	TGI [4]	GI50 [5] [µg/mL]	TGI [5]	GI50 [6]	TGI [6]	GI50 [7] [µg/mL]	TGI [7]	GI50 [8]	TGI [8]	GI50 [9]	TGI [9]	TGI [10] [µM]
CC1(C)CC(=O)C2=C(C1)NC(SSC1=C(C#N)C(c3ccc(F)cc3)C3=C(CC(C)(C)CC3=O)N1)=C(C#N)C2c1ccc(F)cc1 (configuration not stated)	23.6 (≈ 36.1 µM)	46 µg/mL	52.9 µg/mL	> 150 µg/mL	22.9 µg/mL	44.7 µg/mL	23.4 (≈ 35.8 µM)	43.5 µg/mL	30 (≈ 45.8 µM)	55.4 µg/mL	34.1 µg/mL	136 µg/mL	31.1 (≈ 47.5 µM)	68.2 µg/mL	15 µg/mL	15 µg/mL	35.5 µg/mL	78.5 µg/mL	–
O=C(O)C(CSC(c1ccccc1)(c1ccccc1)c1ccccc1)N=Cc1cccs1 (configuration not stated)	–	> 100 µM	–	> 60.7 µM	–	> 24.7 µM	–	9.21 µM	–	> 27.5 µM	–	> 100 µM	–	43.3 µM	–	> 100 µM	–	> 100 µM	> 53.2
O=C(CCN1CC2CCC(CC2)C1)c1cccs1	–	23.3 µM	–	40.7 µM	–	> 100 µM	–	39.2 µM	–	39 µM	–	4.81 µM	–	36.7 µM	–	25.8 µM	–	42.6 µM	20.9
CCOC(=O)/C(=C\NCC(OCC)OCC)c1nc2ccccc2[nH]1	–	> 100 µM	–	> 100 µM	–	28.5 µM	–	> 100 µM	–	62.4 µM	–	> 100 µM	–	56.4 µM	–	> 100 µM	–	95 µM	> 100
CCOC(=O)C1CCn2c(nc3c2c(=O)n(C)c(=O)n3C)S1 (configuration not stated)	–	> 100 µM	–	–	–	> 100 µM	–	> 100 µM	–	–	–	> 100 µM	–	> 100 µM	–	> 100 µM	–	> 100 µM	–
O=CN1CCN(C(=O)c2cc(Cl)cc(Cl)c2)C1=S	–	28.7 µM	–	29.8 µM	–	–	–	39.7 µM	–	31.3 µM	–	25.5 µM	–	32.5 µM	–	34.7 µM	–	32.3 µM	15.7
CC1=C2C(=O)OCC23C=COC3(C)O1 (configuration not stated)	–	> 100 µM	–	95.9 µM	–	35.6 µM	–	65.9 µM	–	> 100 µM	–	> 100 µM	–	> 100 µM	–	> 100 µM	–	> 100 µM	> 100
O=[N+]([O-])c1ccc2c(c1)c(N=NC(=S)NC1CCCCC1)c(O)n2CN1CCOCC1	–	19.4 µM	–	18 µM	–	11.3 µM	–	25.4 µM	–	20.8 µM	–	2.75 µM	–	21.4 µM	–	15.4 µM	–	14.1 µM	18.6
CS(=O)(=O)c1nc(-c2cc3c(c(S(C)(=O)=O)n2)CCCC3)cc2c1CCCC2	–	> 100 µM	–	> 100 µM	–	> 100 µM	–	> 100 µM	–	> 82.2 µM	–	> 100 µM	–	> 100 µM	–	> 43.5 µM	–	> 100 µM	> 100
C/C(=N\NC(=O)c1cccnc1)c1cccc(/C(C)=N/NC(=O)c2cccnc2)n1	–	> 100 µM	–	> 100 µM	2050 nM	7.12 µM	–	13.6 µM	–	–	3.49 µM	> 100 µM	–	> 100 µM	3.74 µM	27.7 µM	–	> 100 µM	–
C=C1C[C@@H](O)[C@@H](Br)C(C)(C)[C@]12CCC(C)(Cl)C(Br)C2 (some centres not stated)	–	> 100 µM	793 nM	3.8 µM	–	23.4 µM	–	32.3 µM	–	> 100 µM	–	> 100 µM	–	> 74.9 µM	–	46.4 µM	–	33.4 µM	> 78.2
Nc1ccccc1N/C(=C\C(=O)C(Cl)(Cl)Cl)c1ccccc1	–	> 100 µM	–	> 100 µM	–	29 µM	–	36.1 µM	–	91.6 µM	–	> 100 µM	–	> 100 µM	–	71 µM	–	63.1 µM	54.3
COc1ccc(N=C2C(=O)C3=C(OC(C)(C)CC3)c3ccccc32)cc1	–	7.93 µM	–	1.97 µM	–	1.53 µM	–	0.806 µM	–	2.58 µM	–	4.43 µM	–	13 µM	–	11.2 µM	–	1.86 µM	1.99
Clc1ccc(Nc2nc(Cl)c3[nH]cnc3n2)cc1Cl	–	> 100 µM	–	64.7 µM	–	52.1 µM	–	–	–	79.1 µM	–	48.2 µM	–	73.2 µM	–	> 100 µM	–	49.1 µM	30.8
[O-][N+](CCO)(CCO)c1ncnc2nc[nH]c12	–	> 100 µM	–	> 100 µM	–	> 100 µM	–	–	–	> 100 µM	–	> 100 µM	–	> 100 µM	–	> 100 µM	–	> 100 µM	> 100
CC[C@@]1(O)C(=O)OCc2c1cc1n(c2=O)Cc2c-1nc1ccc(O)cc1c2CC[Si](C)(C)C	–	0.693 µM and 0.749 µM	–	0.0659 µM	–	0.123 µM and 0.0438 µM	–	–	–	4.09 µM	–	0.464 µM	–	0.0103 µM and 0.0118 µM	–	0.202 µM	18.1 nM	–	–
O=S1(=O)OC(c2ccc(O)cc2)(c2ccc(O)cc2)c2ccccc21	–	> 100 µM	–	> 100 µM	–	> 100 µM	–	> 100 µM	–	> 100 µM	–	> 100 µM	–	> 100 µM	–	> 100 µM	–	> 100 µM	> 100
